Results on one compound are retold here after article PMC6302903, “Protein and Chemical Determinants of BL-1249 Action and Selectivity for K2P Channels” (ACS Chemical Neuroscience, 2018).

The target in one test is T1, K2P2.1(TREK-1)GGG (Mus musculus, UniProt P97438, D309G/I307G).
T1 construct: expressed in transfected cells; host or cells: Xenopus laevis oocytes, mRNA injected
In words: TEVC of triple-glycine mutant uncoupling the C-terminal tail. Type of test: cell-based. As to conditions: Xenopus oocytes. The text has this: Gating stimuli detected by sensors in various parts of the channel converge on the K2P selectivity filter C-type gate.[6],[8],[10],[12],[35] Because the C-terminal tail is the sensor for K2P2.1(TREK-1) activation by both physiological[41]−[46] and chemical[45],[47] activators, we asked whether uncoupling the C-terminal tail from the channel using a triple-glycine mutant at the M4/C-terminal tail junction, K2P2.1(TREK-1)GGG,[41] impacted the BL-1249 response. […]
Xenopus laevis oocytes were harvested in accordance with UCSF IACUC protocol AN129690 and digested in calcium-free ND-96 (96 mM NaCl, 2 mM KCl, 3.8 mM MgCl2) immediately following harvest, as previously described.[6],[10] […] Defolliculated stage V–VI oocytes were injected with 0.2–6.0 ng of mRNA in 50 nL, and currents were recorded 24–48 h after injection. mRNA was synthesized from plasmid DNA using mMessage mMachine Kit (T7 promoter, Ambion, Life Technologies) and purified using RNEasy Kit (Qiagen). […] Once stabilized basal currents were recorded, compounds were perfused at various concentrations in standard ND96 and currents were allowed to increase to stabilization before recording final current. Fold activation upon compound application is expressed as I/I0 (0 mV), derived from the current at 0 mV in the presence of compound divided by the basal current at 0 mV in standard ND96 without compound. […]

The target in another test is T2, K2P2.1(TREK-1) (Mus musculus, UniProt P97438).
T2 sequence (P97438 1-411 isoform P97438-2): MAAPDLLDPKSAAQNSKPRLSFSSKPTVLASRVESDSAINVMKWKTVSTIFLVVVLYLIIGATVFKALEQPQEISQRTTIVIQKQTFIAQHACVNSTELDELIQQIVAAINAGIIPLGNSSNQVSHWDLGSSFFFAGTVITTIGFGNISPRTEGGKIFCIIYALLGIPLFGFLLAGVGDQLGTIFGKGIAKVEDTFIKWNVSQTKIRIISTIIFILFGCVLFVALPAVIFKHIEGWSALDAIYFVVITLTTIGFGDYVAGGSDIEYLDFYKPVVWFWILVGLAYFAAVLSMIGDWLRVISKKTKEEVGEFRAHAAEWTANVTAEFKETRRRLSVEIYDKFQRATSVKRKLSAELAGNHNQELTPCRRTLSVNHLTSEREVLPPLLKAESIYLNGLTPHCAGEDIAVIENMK
In words: Inside-out patch clamp of K2P2.1(TREK-1) in HEK293 cells. Particulars: HEK293 inside-out patches, 150 mM K+[out]/150 mM Rb+[in], 1 μM. Type of test: cell-based. Also on record: expressed in transfected cells. An excerpt:
Diverse types of physical and chemical stimuli activate K2P2.1(TREK-1) by stabilizing the C-type gate and switching the channel into a “leak” mode that is characterized by a loss of outward rectification of the potassium current.[6],[8] Accordingly, we used inside-out patch clamp experiments of K2P2.1(TREK-1) expressed in HEK293 cells to test whether BL-1249 acts on the C-type gate. […] Together with previous single point concentration studies showing the insensitivity of K2P2.1(TREK-1) W275S in mammalian cells,[40] our data provide definitive evidence that BL-1249 activates K2P2.1(TREK-1) by stimulating the C-type gate. Thus, this compound fits the mechanistic paradigm shared by varied types of activators including mechanical stretch, pH, lipids, and small molecules.[6],[8]
Mouse K2P2.1 was expressed from a previously described pIRES2-EGFP vector in HEK293T cells (ATCC CRL-1573). Cells at 70% confluence were transfected (in 35 mm diameter wells) using LipofectAMINE 2000 (Invitrogen) for 6 h and plated onto coverslips coated with Matrigel (BD Biosciences).
Voltage-dependent activation of K2P2.1 was recorded on excised patches in inside-out configuration (50 kHz sampling) in the absence and presence of 1 μM BL-1249. Pipette solution contained the following: 150 mM KCl, 3.6 mM CaCl2, 10 mM HEPES (pH 7.4 with KOH). […] Data were analyzed using Clampfit 9 and Origin 7.

Usually EC50 stands for the concentration at which the effect is half-maximal. Higher therefore signals a need for much substance.

T1 sequence (P97438 1-411 isoform P97438-2 I292G/D294G): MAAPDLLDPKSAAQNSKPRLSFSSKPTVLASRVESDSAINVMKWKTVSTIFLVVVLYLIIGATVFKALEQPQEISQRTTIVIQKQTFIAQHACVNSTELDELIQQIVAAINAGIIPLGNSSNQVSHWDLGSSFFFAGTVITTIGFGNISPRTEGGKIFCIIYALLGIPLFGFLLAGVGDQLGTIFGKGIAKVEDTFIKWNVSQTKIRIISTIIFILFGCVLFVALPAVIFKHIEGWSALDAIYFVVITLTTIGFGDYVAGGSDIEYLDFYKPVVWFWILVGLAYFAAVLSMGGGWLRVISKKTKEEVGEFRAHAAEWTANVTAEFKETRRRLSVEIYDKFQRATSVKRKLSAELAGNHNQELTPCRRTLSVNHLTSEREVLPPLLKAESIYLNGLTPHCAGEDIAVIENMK

On K2P2.1(TREK-1)GGG, `c1ccc(-c2nnn[nH]2)c(Nc2cccc3c2CCCC3)c1` [BL-1249, (5,6,7,8-tetrahydro-naphthalen-1-yl)-[2-(1H-tetrazol-5-yl)-phenyl]-amine] displayed a concentration giving a half-maximal response (EC50) of 19 ± 1 µM. Also, the “effect on outward rectification (C-type gate)” value on K2P2.1(TREK-1) was “clear loss of rectification”.
